One compound from patent US12533386B2, “Preparation of black tea extract with high theaflavin content and use thereof” (Huanggang Normal University, priority 2022, dated 2026) can be followed below.

SMILES strings stand for the structures.

The assay deals with atherosclerosis in ApoE−/− (ApoE-KO) mice. The experiment in a line: Atherosclerosis mouse model (ApoE-KO, high fat diet), histological analyses. The assay is classed as in vivo. The conditions noted are these: 2.5 mg and 7.5 mg theaflavin treatment, especially high dose of 7.5 mg; versus high fat diet group. The procedure:
Twenty four model male ApoE−/− (ApoE-KO) mice were fed a high fat diet for 6 weeks to develop established atherosclerosis. At 8 weeks of age, they were divided into 4 treatment groups: control, high fat diet, 2.5 mg theaflavin treatment, and 7.5 mg theaflavin treatment. 8 weeks after commencement of the study, ApoE-KO mice were anaesthetized. All animal experiments were performed in accordance with the Guidelines for the Care and Use of Laboratory Animals, Ministry of Science and Technology, China. This study was approved by the Animal Care and Scientific Committee of Huanggang Normal University, Hubei, China.

Regarding `O=c1c(O)cc([C@H]2Oc3cc(O)cc(O)c3C[C@H]2O)cc2c([C@H]3Oc4cc(O)cc(O)c4C[C@H]3O)cc(O)c(O)c12` [theaflavin], the “tissue damages in histology (aorta, adipose)” value is listed as “could reverse some of the tissue damages”.
